The values below come from paper PMC4326127, “Collagen Inhibitory Peptide R1R2 Mediates Vascular Remodeling by Decreasing Inflammation and Smooth Muscle Cell Activation” (PLoS ONE, 2015).

“Also recorded” adds a separate entry of the source.

For test [1], the system named is collagen type I. The test can be described thus: IHC for collagen type I in ligated carotid artery. The following applies: 7 days after surgery; 20 μM peptide in pluronic gel; mean ± SEM; R1R2 n = 6, scrambled n = 6. The format is in vivo, FVB/NJ (FVB) mice. Here is the method:
(§1) Animals were anesthetized with isoflurane inhalation. The left common carotid artery was exposed, dissected free from the surrounding connective tissue and completely ligated with 6-0 silk suture just proximal to the carotid bifurcation. […] 4–10 mice were included in each experimental group.
(§2) Paraffin sections selected from the first mm of the carotid artery in each group were used for immunohistochemistry (IHC). […] Sections were then incubated with appropriate biotinylated secondary antibodies followed by avidin-biotin immunoperoxidase system (Vector Laboratories, Burlingame, CA). Liquid DAB Substrate Chromogen system (Dako, Carpinteria, CA) was used for detection.
(§3) Quantitative IHC analysis was performed on digital images captured with a 20x objective by using Image-Pro Plus software. Data from 3–6 mice for each group were averaged, and the average values ± SEM were shown. For FN, collagen type I, SM-MHC and SM α-actin, color digital images were transformed into gray scale, and the sum of the optical densities from the intima+media area in each section was determined. […] The percent of positive cells is reported as the proliferation index. […] The intima+media region was traced manually. The percent of positively stained area in intima+media to the total traced area was assessed.
(§4) For in vivo experiments, the data are shown as the mean ± SEM. […]

Test [2] deals with smooth muscle α-actin (SMAA). The test can be described thus: IHC for smooth muscle α-actin in ligated carotid artery. The settings on record: 7 days post-ligation; mean ± SEM; scrambled n = 6, R1R2 n = 5 (sham 0.232 ± 0.011, n = 5). The format is in vivo, FVB/NJ (FVB) mice. Here is the method:
as §1, §2, §3, §4

The next test deals with Ki-67 (+) cells. The test can be described thus: Ki-67 IHC, cell proliferation in carotid intima and media. The format is in vivo, FVB/NJ (FVB) mice. The settings on record: 7 days post-surgery, mean ± SEM, n = 5 each. Here is the method: as §1, §2, §3, §4
Another test has as its system CD45 (+) leukocytes. The experiment in a line: CD45 IHC, leukocyte infiltration in carotid intima-media. The format is in vivo, FVB/NJ (FVB) mice. Here is the method:
as §1, §2, §3
For in vivo experiments, the data are shown as the mean ± SEM. For in vitro experiments, the data shown are the means ± SD of a representative experiment, at least 3 independent experiments were performed. One-way ANOVA with post-hoc testing were used for data analysis with GraphPad Prism software (GraphPad, San Diego, CA). If normality test failed, nonparametric Kruskal-Wallis test followed by Dunn's post-hoc test were used. P > 0.05 was not considered significant.

The test system of another test is VCAM-1. The experiment in a line: VCAM-1 IHC in ligated carotid artery. The format is in vivo, FVB/NJ (FVB) mice. The following applies: 7 days after ligation; percent of positively stained area; mean ± SEM; R1R2 n = 7, control peptide n = 9. Here is the method:
as §1, §2, §3, §4

The subject of test [3] is ICAM-1. The test can be described thus: ICAM-1 IHC in ligated carotid artery. The format is in vivo, FVB/NJ (FVB) mice. The settings on record: 7 days after ligation; percent of positively stained area; mean ± SEM; R1R2 n = 7, control peptide n = 8. Here is the method: as §1, §2, §3, §4
Test [4] relates to ICAM-1. The test can be described thus: Western blot of ICAM-1 in TNF-α-treated HUVECs. The format is cell-based, human. The settings on record: in words. The procedure:
Human umbilical vein endothelial cells (HUVECs) and A7r5 SMCs were provided by Resource Center (SB3, NSC 100-2325-B-080-001), National Research Program for Biopharmaceuticals (Hsinchu, Taiwan). HUVECs were maintained in M199 (Life Technologies, Carlsbad, CA) with 25U/ml heparin (Sigma-Aldrich, St. Louis, MO), 10% fetal bovine serum (FBS) and endothelial cell growth supplement (ECGS; Millipore, Billerica, MA). A7r5 SMCs were grown in Dulbecco’s Modified Eagle’s Medium (DMEM) containing high glucose, supplemented with 10% fetal bovine serum. Human U937 cells were grown in RPMI1640 with 10% FBS.
Tissues or cells were homogenized with RIPA buffer supplemented with protease inhibitor cocktail (Sigma-Aldrich, St. Louis, MO). Cell lysates were spun at 12,000 rpm for 15 min at 4°C, then electrophoresed on 10% SDS-PAGE gel and transferred to nitrocellulose. […]
Fig 8 R1R2 decreases TNF-α-induced monocyte U937 cell adhesion to HUVECs and transendothelial migration and reduces ICAM-1 and VCAM-1 levels. […] Calcein-AM labeled U937 monocyte adhesion to TNF-α HUVECs was quantitated by fluorescence intensity. Microscopic images showing U937 monocytes adhering to HUVECs as assessed by in vitro adhesion assay. […]
Background: A western blot detects proteins with antibodies after separation by electrophoresis.

Test [5] concerns collagen type I. The following applies: in vitro; ref [29],[30],[33]; cited from earlier work. The text has this: (§5) In order to assess whether inhibiting collagen type I deposition reduces vascular remodeling in an in vivo mouse model, we used the collagen inhibitory peptide R1R2 for this study. The R1R2 peptide is derived from two repeat domains of the bacterial adhesin SFS, and is highly homologous to collagen. […] It is likely that R1R2 blocks collagen type I fibril formation around cells by binding to the collagen-binding domain of FN. To characterize the effects of our synth ...

The test system of another test is collagen-FN binding. The settings on record: in vitro; ref [29],[30],[33]; cited from earlier work.
From the text: as §5

The subject of a further test is smooth muscle cell. The following applies: in vitro; ref [29],[30],[33]; cited from earlier work.
From the text: as §5

As to “GLNGENQKEPEQGERGEAGPPLSGLSGNNQGRPSLPGLNGENQKEPEQGERGEAGPP [R1R2]”, in the test on collagen type I [1], the “collagen type I IHC intensity in intima-media area” value is listed as 0.117 ± 0.007. In test [2], the “SMAA IHC staining in intima-media area” value is recorded as 0.214 ± 0.004. The “proliferation index (Ki-67 (+) cells/total cells)” value in the test on Ki-67 (+) cells worked out at 11.20 ± 0.62%. Further, in the test on CD45 (+) leukocytes (7 days after ligation, percent of positively stained area, mean ± SEM, R1R2 n = 5, scrambled n = 6), the “CD45 (+) area in intima-media” value turned out to be 0.094 ± 0.035%. For the same sequence, the “reduction of inflammatory cell infiltration into the vessel” value in the test with CD45 (+) leukocytes (carotid artery, periadventitial pluronic gel) was roughly 78%. In addition, the “VCAM-1 (+) area in intima-media” value in the test on VCAM-1 came out at 10.36 ± 1.802%. The “ICAM-1 (+) area in intima-media” value in the test with ICAM-1 [3] was determined as 11.58 ± 2.387%. Besides, in the test with ICAM-1 [4], the “ICAM-1 expression on HUVECs” value was “significantly decreased; also recorded: transient and detected earlier than the effect on VCAM-1 expression”. Further, the “effect on collagen type I deposition” value in the test with collagen type I [5] is listed as “known to inhibit collagen-FN binding, collagen type I deposition”. Also, the “effect on collagen-FN binding” value in the test on collagen-FN binding is given as “known to inhibit collagen-FN binding”. In the test on smooth muscle cell, the “effect on smooth muscle cell migration” value was “known to inhibit collagen-FN binding, collagen type I deposition, and smooth muscle cell migration in vitro”.
